# Assay results reported in US20250171459A1, “2-METHYL-4',5'-DIHYDROSPIRO[PIPERIDINE-4,7'-THIENO[2,3-C]PYRAN] DERIVATIVES AS INHIBITORS OF APOL1 AND METHODS OF USING SAME” (Vertex Pharmaceuticals Incorporated, priority 2022, published 2025).
# Target: T1, APOL1 (Homo sapiens, UniProt O14791)
# T1 sequence (O14791 1-398 S342G/I384M): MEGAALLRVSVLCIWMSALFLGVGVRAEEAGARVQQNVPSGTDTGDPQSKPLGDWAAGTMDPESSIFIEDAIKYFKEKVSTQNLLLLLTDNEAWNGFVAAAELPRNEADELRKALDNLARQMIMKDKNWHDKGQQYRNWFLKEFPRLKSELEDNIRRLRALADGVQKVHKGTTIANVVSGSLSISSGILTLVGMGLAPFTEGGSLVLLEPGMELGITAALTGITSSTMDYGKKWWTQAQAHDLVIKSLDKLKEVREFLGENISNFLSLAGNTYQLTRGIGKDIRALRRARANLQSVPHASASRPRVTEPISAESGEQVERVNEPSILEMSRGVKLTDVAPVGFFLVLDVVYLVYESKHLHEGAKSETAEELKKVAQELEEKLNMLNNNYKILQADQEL
# Test: MultiTox-Fluor Multiplex Cytotoxicity Assay in tet-inducible APOL1 T-REx-HEK293 cells (cell rescue, ratio of dead to live cells)
# Type: cell-based
# Conditions: tet-inducible transgenic APOL1 T-REx-HEK293 cell lines, 50 ng/mL tet, 24 hours; read-out: IP50 (i.e., IC50 for cell proliferation)
# Method in brief: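 T-REx-HEK293 cells with tet-inducible APOL1 were treated with compound (10 μM top, 10-point 3-fold dilution, duplicate) plus 50 ng/mL tetracycline for 24 h at 37° C, in DMEM with 2% tet-free FBS. MultiTox-Fluor protease signals gave a dead/live ratio, normalized to no tet (100% viability) and tet alone (0%).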
row,Structure (SMILES),IC50
1,CCc1cc2c(s1)CCO[C@@]21CCN(Cc2cn(-c3cccnc3)nn2)[C@@H](C)C1 [Compound 73],< 100 nM
2,"COC(=O)c1c(C(F)(F)F)sc2c1CCO[C@@]21CCN(Cc2cn(CCS(C)(=O)=O)nn2)[C@@H](C)C1 [Compound 1006, Methyl (2′S,7R)-2′-methyl-1′-[[1-(2-methylsulfonylethyl)triazol-4-yl]methyl]-2-(trifluoromethyl)spiro[4,5-dihydrothieno[2,3-c]pyran-7,4′-piperidine]-3-carboxylate]",100 to 500 nM
3,C[C@H]1C[C@@]2(CCN1Cc1ccc(S(C)(=O)=O)c(F)c1)OCCc1cc(Cl)sc12 [Compound 669],100 to 500 nM
4,[2H]C([2H])([2H])OC1CO[C@@]2(CCN(Cc3cnn(CCS(C)(=O)=O)c3)[C@@H](C)C2)c2sc(Cl)cc21 (stereo partly shown) [Compound 846],< 100 nM
5,CCc1cc2c(s1)CCO[C@@]21CCN(Cc2cn(CC3(COC)CCOCC3)nn2)[C@@H](C)C1 [Compound 94],100 to 500 nM
6,CC(O)CCN1CC[C@]2(C[C@@H]1C)OCCc1cc(Cl)sc12 (stereo partly shown) [Compound 643],500 to 1000 nM
7,CCc1cc2c(s1)CCO[C@@]21CCN(C[C@H]2C[C@@H](NS(=O)(=O)C(C)C)C2)[C@@H](C)C1 [Compound 395],< 100 nM
8,CCc1cc2c(s1)CCO[C@@]21CCN(CC2CN(C(=O)c3cc[nH]n3)C2)[C@@H](C)C1 [Compound 469],< 100 nM
9,CCc1cc2c(s1)CCOC21CCN(Cc2cn(CCC(=O)NCC(C)O)nn2)CC1 (stereo not shown) [Compound 1102],500 to 1000 nM
10,C[C@H]1C[C@@]2(CCN1Cc1cnn(Cc3nnnn3C)c1)OCCc1c2sc(C(F)(F)F)c1CO [Compound 914],< 100 nM
11,CCc1cc2c(s1)CCO[C@@]21CCN(C[C@H]2C[C@@H](NS(=O)(=O)CC(=O)OC)C2)[C@@H](C)C1 [Compound 392],500 to 1000 nM
12,"CNC(=O)[C@H](O)Cn1cc(CN2CC[C@]3(C[C@@H]2C)OCCc2c3sc(C(F)(F)F)c2CO)cn1 [Compound 986, (2R)-2-hydroxy-3-[4-[[(2′S, 7R)-3-(hydroxymethyl)-2′-methyl-2-(trifluoromethyl)spiro[4,5-dihydrothieno[2,3-c]pyran-7,4′-piperidine]-1′-yl]methyl]pyrazol-1-yl]-N-methyl-propanamide]",< 100 nM
13,CC(O)Cn1cc(CN2CC[C@]3(C[C@@H]2C)OCCc2c3sc(C(F)(F)F)c2CO)nn1 (stereo partly shown) [Compound 1002],< 100 nM
14,CCc1cc2c(s1)CCO[C@@]21CCN(C[C@H]2C[C@@H](NC(=O)C3CC(=O)C3(C)C)C2)[C@@H](C)C1 (stereo partly shown) [Compound 318],< 100 nM
15,CCc1cc2c(s1)CCO[C@@]21CCN(Cc2cn(CCc3c[nH]cn3)nn2)[C@@H](C)C1 [Compound 48],< 100 nM
16,CCc1cc2c(s1)CCO[C@@]21CCN(C[C@H]2C[C@@H](NS(=O)(=O)C3CC3)C2)[C@@H](C)C1 [Compound 390],< 100 nM
17,C[C@H]1C[C@@]2(CCN1Cc1cccc(OCC(N)=O)c1)OC[C@H](O)c1cc(Cl)sc12 [Compound 771],100 to 500 nM
18,C[C@H]1C[C@@]2(CCN1Cc1ccn(C)n1)OCCc1cc(CC(F)F)sc12 [Compound 578],< 100 nM
19,C[C@H]1C[C@@]2(CCN1Cc1cnn(CC3(CO)COC3)c1)OCCc1c2sc(C(F)(F)F)c1CO [Compound 915],< 100 nM
20,CCc1cc2c(s1)CCO[C@@]21CCN(Cc2cn(Cc3cc(C)n[nH]3)nn2)[C@@H](C)C1 [Compound 64],< 100 nM
21,CCc1cc2c(s1)CCOC21CCN(Cc2cncnc2)CC1 [Compound 1156],500 to 1000 nM
22,CCc1cc2c(s1)CCO[C@@]21CCN(C[C@H]2C[C@@H](NS(=O)(=O)c3cncc(Cl)c3)C2)[C@@H](C)C1 [Compound 407],< 100 nM
23,CCc1cc2c(s1)CCO[C@@]21CCN(Cc2cn(Cc3cn(C)nc3C)nn2)[C@@H](C)C1 [Compound 54],< 100 nM
24,CCc1cc2c(s1)CCO[C@@]21CCN(CC2CN(C(=O)c3ccon3)C2)[C@@H](C)C1 [Compound 425],< 100 nM
25,"C[C@H]1C[C@@]2(CCN1Cc1cnn(CC(C)(O)C(N)=O)c1)OCCc1c2sc(C(F)(F)F)c1CO (stereo partly drawn) [Compound 989, 2-Hydroxy-3-[4-[[(2′S, 7R)-3-(hydroxymethyl)-2′-methyl-2-(trifluoromethyl)spiro[4,5-dihydrothieno[2,3-c]pyran-7,4′-piperidine]-1′-yl]methyl]pyrazol-1-yl]-2-methyl-propanamide]",< 100 nM
26,C[C@H]1C[C@@]2(CCN1Cc1cn(CC(C)(C)CO)nn1)OC[C@](O)(C(F)F)c1cc(Cl)sc12 [Compound 838],500 to 1000 nM

row,Structure (SMILES),IC50
1,CCc1cc2c(s1)CCOC21CCN(Cc2cnc(NCc3cc[nH]c(=O)c3)nc2)CC1 [Compound 1075],100 to 500 nM
2,C[C@H]1C[C@@]2(CCN1Cc1cnn(CCO)c1)OCCc1c2sc(C(F)(F)F)c1CO [Compound 875],< 100 nM
3,CCc1cc2c(s1)CCO[C@@]21CCN(C[C@H]2C[C@@H](NS(=O)(=O)c3ccccc3Cl)C2)[C@@H](C)C1 [Compound 409],< 100 nM
4,CCc1cc2c(s1)CCO[C@@]21CCN(CC2CN(C(=O)c3ccc(=O)oc3)C2)[C@@H](C)C1 [Compound 463],100 to 500 nM
5,CCc1ccc(S(=O)(=O)N[C@H]2C[C@@H](CN3CC[C@]4(C[C@@H]3C)OCCc3sc(CC)cc34)C2)s1 [Compound 403],< 100 nM
6,CCc1cc2c(s1)CCO[C@@]21CCN(Cc2cn(CC3CCC4(CC3)COC4)nn2)[C@@H](C)C1 [Compound 78],100 to 500 nM
7,"CCc1cc2c(s1)[C@]1(CCN(Cc3cn(CCS(C)(=O)=O)nn3)[C@@H](C)C1)OCC2 [Compound 1036, (2′S, 7R)-2-ethyl-2′-methyl-1′-[[1-(2-methylsulfonylethyl)triazol-4-yl]methyl]spiro[4,5-dihydrothieno[2,3-c]pyran-7,4′-piperidine]]",< 100 nM
8,CCc1cc2c(s1)CCO[C@@]21CCN(Cc2cn([C@H]3CS(=O)(=O)C[C@H]3O)nn2)[C@@H](C)C1 [Compound 62],< 100 nM
9,CCc1cc2c(s1)CCOC21CCN(Cc2cn(CCc3noc(C)n3)nn2)CC1 [Compound 1109],500 to 1000 nM
10,CCc1cc2c(s1)CCOC21CCN(Cc2cn(CC(C)(C)S(C)(=O)=O)nn2)CC1 [Compound 1081],100 to 500 nM
11,CCc1cc2c(s1)CCO[C@@]21CCN(C[C@H]2C[C@@H](NS(=O)(=O)CCC3NC(=O)NC3=O)C2)[C@@H](C)C1 (stereo partly shown) [Compound 415],100 to 500 nM
12,CCc1cc2c(s1)CCO[C@@]21CCN(C[C@H]2C[C@@H](NC(=O)CNS(=O)(=O)CC)C2)[C@@H](C)C1 [Compound 353],< 100 nM
13,"C[C@H]1C[C@@]2(CCN1Cc1cnn(CCS(C)(=O)=O)c1)OCC(O)c1cc(Cl)sc12 (single isomer, unassigned) [Compound 769]",< 100 nM
14,"CC(O)CN1CC[C@]2(C[C@@H]1C)OCCc1cc(CC(F)F)sc12 (stereo partly drawn) [Compound 613, 1-((2S,4R)-2′-(2,2-difluoroethyl)-2-methyl-4′,5′-dihydrospiro[piperidine-4,7′-thieno[2,3-c]pyran]-1-yl)propan-2-ol]",100 to 500 nM
15,C[C@H]1C[C@@]2(CCN1Cc1cnn(Cc3nnco3)c1)OCCc1c2sc(C(F)(F)F)c1CO [Compound 919],< 100 nM
16,CCc1cc2c(s1)CCO[C@@]21CCN(C[C@H]2C[C@@H](NS(=O)(=O)Cc3ccccc3)C2)[C@@H](C)C1 [Compound 398],< 100 nM
17,"C[C@H]1C[C@@]2(CCN1Cc1cnn(CCS(C)(=O)=O)c1)OCC(O)c1cc(C(F)(F)C(F)F)sc12 (single isomer, unassigned) [Compound 1014, (2′S, 7R)-2′-methyl-1′-[[1-(2-methylsulfonylethyl)pyrazol-4-yl]methyl]-2-(1,1,2,2-tetrafluoroethyl)spiro[4,5-dihydrothieno[2,3-c]pyran-7,4′-piperidine]-4-ol]",< 100 nM
18,CCc1cc2c(s1)CCO[C@@]21CCN(Cc2cn([C@H]3C[C@@H](S(C)(=O)=O)C3)nn2)[C@@H](C)C1 [Compound 19],100 to 500 nM
19,"CCc1cc2c(s1)CCO[C@@]21CCN(CC2CN(C(=O)c3nonc3N)C2)[C@@H](C)C1 [Compound 422, (4-amino-1,2,5-oxadiazol-3-yl)-[3-[[(2′S,4R)-2-ethyl-2′-methyl-spiro[6,7-dihydrothieno[3,2-c]pyran-4,4′-piperidine]-1′-yl]methyl]azetidin-1-yl]methanone]",< 100 nM
20,CCc1cc2c(s1)CCO[C@@]21CCN(CC2CN(C(=O)c3ccncc3)C2)[C@@H](C)C1 [Compound 430],< 100 nM
21,C[C@H]1C[C@@]2(CCN1Cc1cnn(C[C@@H]3CCC(=O)N3)c1)OCCc1c2sc(C(F)(F)F)c1CO [Compound 922],< 100 nM
22,C[C@H]1C[C@@]2(CCN1Cc1cnn(CC3(C)COC3)c1)OCCc1cc(Cl)sc12 [Compound 633],< 100 nM
23,CCc1cc2c(s1)CCO[C@@]21CCN(CC2CN(C(=O)CCCS(C)(=O)=O)C2)[C@@H](C)C1 [Compound 435],< 100 nM
24,CNC(=O)[C@H](O)Cn1cc(CN2CC[C@]3(C[C@@H]2C)OC[C@@H](O)c2cc(C(F)(F)F)sc23)cn1 [Compound 993],100 to 500 nM
25,Cc1nccn1-c1ccc(CN2CC[C@]3(C[C@@H]2C)OCCc2c3sc(Cl)c2CO)cc1 [Compound 717],100 to 500 nM
26,C[C@H]1C[C@@]2(CCN1CCCn1cccn1)OCCc1c2sc(Cl)c1CO [Compound 721],500 to 1000 nM
